Experimental data: article PMC12396409, “Screening and hit evaluation of a microbial metabolite library against the pathogenic Plasmodium falciparum and Toxoplasma gondii parasites” (International Journal for Parasitology: Drugs and Drug …, 2025)
Read-outs that look alike come from different tables or passages of the source.

Tests used:
[1] = test system: P. falciparum 3D7 parasites; assay: P. falciparum growth inhibition assay, 1-cycle (72 h treatment), SYBR DNA staining (library screen at 2 μg/mL and dose-response); format: cell-based, Plasmodium falciparum; settings: for activity at 2 µg/mL: Plasmodium falciparum
[2] = test system: T. gondii RH strain (RH-Tub-eYFP) tachyzoites; assay: microbe, parasite or virus in culture; format: cell-based, Toxoplasma gondii
[3] = test system: P. falciparum 3D7 parasites; assay: P. falciparum growth inhibition assay, 2-cycle (120 h treatment), delayed-death screen and dose-response; format: cell-based, Plasmodium falciparum; settings: for activity at 2 µg/mL: Plasmodium falciparum
[4] = 3D7, P. falciparum, 72 h, parasite screen 2 μg/mL, % growth, replicate 1, read-out: Pf_72h_%Growth_Rep1
[5] = 3D7, P. falciparum, 72 h, parasite screen 2 μg/mL, % growth, replicate 2, read-out: Pf_72h_%Growth_Rep2
[6] = Toxoplasma gondii, 72 h, T. gondii, 72 h, parasite screen 2 μg/mL, % growth, replicate 1; read-out: Tg_72h_%Growth_Rep1
[7] = Toxoplasma gondii, 72 h, T. gondii, 72 h, parasite screen 2 μg/mL, % growth, replicate 2; read-out: Tg_72h_%Growth_Rep2
[8] = 3D7, P. falciparum, 120 h, parasite screen 2 μg/mL, % growth, replicate 1, read-out: Pf_120h_%Growth_Rep1
[9] = 3D7, P. falciparum, 120 h, parasite screen 2 μg/mL, % growth, replicate 2, read-out: Pf_120h_%Growth_Rep2
[10] = 3D7, library screen at 2 μg/mL, 72 h, % growth, replicate 1, read-out: Pf_72h_%Growth_Rep1
[11] = 3D7, library screen at 2 μg/mL, 72 h, % growth, replicate 2, read-out: Pf_72h_%Growth_Rep2
[12] = Toxoplasma gondii; library screen at 2 μg/mL, 72 h, % growth, replicate 1; read-out: Tg_72h_%Growth_Rep1
[13] = Toxoplasma gondii; library screen at 2 μg/mL, 72 h, % growth, replicate 2; read-out: Tg_72h_%Growth_Rep2
[14] = 3D7, library screen at 2 μg/mL, 120 h, % growth, replicate 1, read-out: Pf_120h_%Growth_Rep1
[15] = 3D7, library screen at 2 μg/mL, 120 h, % growth, replicate 2, read-out: Pf_120h_%Growth_Rep2
[16] = Toxoplasma gondii, 72 h, T. gondii, 72 h, screen at 2 μg/mL, replicate 1; read-out: Tg_72h_%Growth_Rep1
[17] = Toxoplasma gondii, 72 h, T. gondii, 72 h, screen at 2 μg/mL, replicate 2; read-out: Tg_72h_%Growth_Rep2
[18] = P. falciparum, 72 h, screen at 2 μg/mL, replicate 1
[19] = P. falciparum, 72 h, screen at 2 μg/mL, replicate 2
[20] = T. gondii, 72 h, screen at 2 μg/mL, replicate 1
[21] = T. gondii, 72 h, screen at 2 μg/mL, replicate 2
[22] = P. falciparum, 120 h, screen at 2 μg/mL, replicate 1
[23] = P. falciparum, 120 h, screen at 2 μg/mL, replicate 2
[24] = T. gondii, 72 h, 2 μg/mL; values are growth (% of control)
[25] = P. falciparum 3D7, 72 h, library screen at 2 μg/mL, % growth, replicate 1
[26] = P. falciparum 3D7, 72 h, library screen at 2 μg/mL, % growth, replicate 2
[27] = T. gondii RH, 72 h, library screen at 2 μg/mL, % growth, replicate 1
[28] = T. gondii RH, 72 h, library screen at 2 μg/mL, % growth, replicate 2
[29] = P. falciparum 3D7, 120 h, library screen at 2 μg/mL, % growth, replicate 1
[30] = P. falciparum 3D7, 120 h, library screen at 2 μg/mL, % growth, replicate 2

## Cc1cc(O)c2c(c1)C(=O)c1c(c(O)cc(O)c1-c1c(O)cc(O)c3c1C(=O)c1cc(C)cc(O)c1C3=O)C2=O [Skyrin]
[1]; [4]
  activity at 2 µg/mL: 80.4%
[1]; [5]
  activity at 2 µg/mL: 120%
[2]; [6]
  percent parasite growth at 2 µg/mL: 114%
[2]; [7]
  percent parasite growth at 2 µg/mL: 84.9%
[3]; [8]
  activity at 2 µg/mL: 75.2%
[3]; [9]
  activity at 2 µg/mL: 137%

## CC(C)[C@H]1C(=O)O[C@H](C(C)C)C(=O)N(C)[C@@H](C(C)C)C(=O)O[C@H](C(C)C)C(=O)N(C)[C@@H](C(C)C)C(=O)O[C@H](C(C)C)C(=O)N1C [Enniatin B]
[1]; [10]
  activity at 2 µg/mL: 4.68%
[1]; [11]
  activity at 2 µg/mL: 1.65%
[2]; [12]
  percent parasite growth at 2 µg/mL: 3.2%
[2]; [13]
  percent parasite growth at 2 µg/mL: 30.3%
[3]; [14]
  activity at 2 µg/mL: 2.26%
[3]; [15]
  activity at 2 µg/mL: 4.15%

## C[C@@H]1C[C@H](C)C[C@H](C)[C@@H](O)CC(=O)O[C@H]([C@@H]2CCC[C@H]2C(=O)O)C/C=C/C=C(/C#N)[C@H](O)[C@@H](C)C1 [Borrelidin]
[1]; 3D7, P. falciparum, 72 h, screen at 2 μg/mL, replicate 1, read-out: Pf_72h_%Growth_Rep1
  activity at 2 µg/mL: 2.87%
[1]; 3D7, P. falciparum, 72 h, screen at 2 μg/mL, replicate 2, read-out: Pf_72h_%Growth_Rep2
  activity at 2 µg/mL: -1.49%
[2]; [16]
  percent parasite growth at 2 µg/mL: 0.76%
[2]; [17]
  percent parasite growth at 2 µg/mL: 1.62%
[3]; 3D7, P. falciparum, 120 h, screen at 2 μg/mL, replicate 1, read-out: Pf_120h_%Growth_Rep1
  activity at 2 µg/mL: 4.36%
[3]; 3D7, P. falciparum, 120 h, screen at 2 μg/mL, replicate 2, read-out: Pf_120h_%Growth_Rep2
  activity at 2 µg/mL: 5.57%

## CO[C@@H]1[C@H](N(C)C(=O)c2ccccc2)C[C@H]2O[C@]1(C)n1c3ccccc3c3c4c(c5c6ccccc6n2c5c31)C(=O)NC4=O [Stauprimide]
[1]; P. falciparum, 72 h, parasite screen 2 μg/mL, % growth, replicate 1
  Pf_72h_%Growth_Rep1: 1.11%
[1]; P. falciparum, 72 h, parasite screen 2 μg/mL, % growth, replicate 2
  Pf_72h_%Growth_Rep2: -9.03%
[2]; T. gondii, 72 h, parasite screen 2 μg/mL, % growth, replicate 1
  Tg_72h_%Growth_Rep1: 9.90%
[2]; T. gondii, 72 h, parasite screen 2 μg/mL, % growth, replicate 2
  Tg_72h_%Growth_Rep2: 20.75%
[3]; P. falciparum, 120 h, parasite screen 2 μg/mL, % growth, replicate 1
  Pf_120h_%Growth_Rep1: 32.82%
[3]; P. falciparum, 120 h, parasite screen 2 μg/mL, % growth, replicate 2
  Pf_120h_%Growth_Rep2: 11.28%

## CC(/C=C/C(=O)NO[C@@H]1O[C@H](CO)[C@@H](O)[C@H](O)[C@H]1O)=C\[C@@H](C)C(=O)c1ccc(N(C)C)cc1 [Trichostatin C]
[1]; [18]
  Pf_72h_%Growth_Rep1: 75.18%
[1]; [19]
  Pf_72h_%Growth_Rep2: 84.35%
[2]; [20]
  Tg_72h_%Growth_Rep1: 87.04%
[2]; [21]
  Tg_72h_%Growth_Rep2: 108.99%
[3]; [22]
  Pf_120h_%Growth_Rep1: 157.32%
[3]; [23]
  Pf_120h_%Growth_Rep2: 88.61%

## C/C=C(\NC(=O)c1csc(-c2csc(-c3ccc4c(n3)-c3csc(n3)[C@H]([C@@H](C)O)NC(=O)c3csc(n3)[C@H](C(C)(C)O)NC(=O)c3csc(n3)/C(=C/C)NC(=O)[C@H]([C@@H](C)O)NC(=O)c3csc-4n3)n2)n1)C(=O)NC[C@@H](C)O [Thiocillin I]
[1]; 3D7, 72 h treatment, mean ± S.D., n ≥ 3, read-out: IC50 (μM), P. falciparum
  IC50: 0.08 ± 0.008 µM
[1]; 72 h treatment, read-out: IC50, P. falciparum
  IC50: < 0.2 µM
[1]; [18]
  Pf_72h_%Growth_Rep1: 5.41%
[1]; [19]
  Pf_72h_%Growth_Rep2: -2.25%
[2]; [20]
  Tg_72h_%Growth_Rep1: 86.81%
[2]; [21]
  Tg_72h_%Growth_Rep2: 86.09%
[3]; [22]
  Pf_120h_%Growth_Rep1: 9.85%
[3]; [23]
  Pf_120h_%Growth_Rep2: 7.39%

## CCCCCC1=C/C(=C/c2[nH]c(-c3ccc[nH]3)cc2OC)N=C1C [Prodigiosin]
[1]; [4]
  activity at 2 µg/mL: 5.96%
[1]; [5]
  activity at 2 µg/mL: 4.13%
[2]; T. gondii, 72 h, 2 μg/mL; mean of both replicates, growth (% of control)
  Mean: 25.60
[2]; [24]
  Replicate 1: 39.74
  Replicate 2: 11.46
[2]; Toxoplasma gondii; T. gondii, 72 h, parasite screen 2 μg/mL, % growth, replicate 1; read-out: Tg_72h_%Growth_Rep1
  percent parasite growth at 2 µg/mL: 39.7%
[2]; Toxoplasma gondii; T. gondii, 72 h, parasite screen 2 μg/mL, % growth, replicate 2; read-out: Tg_72h_%Growth_Rep2
  percent parasite growth at 2 µg/mL: 11.5%
[3]; [8]
  activity at 2 µg/mL: -0.86%
[3]; [9]
  activity at 2 µg/mL: 19.4%

## COC(=O)C1=COC(C)C2CN3CCc4c([nH]c5cc(OC)c(OC)cc45)C3CC12 (centres unmarked) [BIA-I1957]
[1]; [25]
  Pf_72h_%Growth_Rep1: 25.00%
[1]; [26]
  Pf_72h_%Growth_Rep2: 24.20%
[2]; [27]
  Tg_72h_%Growth_Rep1: 168.01%
[2]; [28]
  Tg_72h_%Growth_Rep2: 105.99%
[3]; [29]
  Pf_120h_%Growth_Rep1: 15.82%
[3]; [30]
  Pf_120h_%Growth_Rep2: -7.23%

## Cc1cc(OC(=O)c2c(C)cc(O)cc2O)cc(O)c1C(=O)O [BIA-L1669]
[1]; [25]
  Pf_72h_%Growth_Rep1: 74.56%
[1]; [26]
  Pf_72h_%Growth_Rep2: 54.17%
[2]; [27]
  Tg_72h_%Growth_Rep1: 166.09%
[2]; [28]
  Tg_72h_%Growth_Rep2: 102.01%
[3]; [29]
  Pf_120h_%Growth_Rep1: 65.54%
[3]; [30]
  Pf_120h_%Growth_Rep2: 115.03%

## COC(=O)[C@]1(Cc2ccc(O)c(CC=C(C)C)c2)OC(=O)C(O)=C1c1ccc(O)cc1 [Butyrolactone I]
[1]; 3D7, 72 h, P. falciparum, 72 h, screen at 2 μg/mL, replicate 1, read-out: Pf_72h_%Growth_Rep1
  activity at 2 µg/mL: 72.4%
[1]; 3D7, 72 h, P. falciparum, 72 h, screen at 2 μg/mL, replicate 2, read-out: Pf_72h_%Growth_Rep2
  activity at 2 µg/mL: 88.5%
[2]; [16]
  percent parasite growth at 2 µg/mL: 85.8%
[2]; [17]
  percent parasite growth at 2 µg/mL: 88.7%
[3]; 3D7, 120 h, P. falciparum, 120 h, screen at 2 μg/mL, replicate 1, read-out: Pf_120h_%Growth_Rep1
  activity at 2 µg/mL: 147%
[3]; 3D7, 120 h, P. falciparum, 120 h, screen at 2 μg/mL, replicate 2, read-out: Pf_120h_%Growth_Rep2
  activity at 2 µg/mL: 92.6%

## CC[C@H](C)C(=O)O[C@H]1C[C@H](O)C=C2C=C[C@H](C)[C@H](CC[C@@H](O)C[C@@H](O)CC(=O)O)[C@H]21 [Pravastatin sodium]
[1]; 3D7, 72 h, P. falciparum, 72 h, parasite screen 2 μg/mL, % growth, replicate 1, read-out: Pf_72h_%Growth_Rep1
  activity at 2 µg/mL: 83.8%
[1]; 3D7, 72 h, P. falciparum, 72 h, parasite screen 2 μg/mL, % growth, replicate 2, read-out: Pf_72h_%Growth_Rep2
  activity at 2 µg/mL: 99.3%
[2]; [6]
  percent parasite growth at 2 µg/mL: 92.2%
[2]; [7]
  percent parasite growth at 2 µg/mL: 94.6%
[3]; 3D7, 120 h, P. falciparum, 120 h, parasite screen 2 μg/mL, % growth, replicate 1, read-out: Pf_120h_%Growth_Rep1
  activity at 2 µg/mL: 96.8%
[3]; 3D7, 120 h, P. falciparum, 120 h, parasite screen 2 μg/mL, % growth, replicate 2, read-out: Pf_120h_%Growth_Rep2
  activity at 2 µg/mL: 111%

## C=CC(C)(C)c1[nH]c2ccccc2c1C[C@@H]1NC(=O)[C@@H]2CCCN2C1=O [Deoxybrevianamide E]
[1]; [18]
  Pf_72h_%Growth_Rep1: 84.72%
[1]; [19]
  Pf_72h_%Growth_Rep2: 85.50%
[2]; [20]
  Tg_72h_%Growth_Rep1: 164.73%
[2]; [21]
  Tg_72h_%Growth_Rep2: 103.33%
[3]; [22]
  Pf_120h_%Growth_Rep1: 100.44%
[3]; [23]
  Pf_120h_%Growth_Rep2: 95.74%

## Cc1cc(O)cc2oc(=O)c3c(O)cc(O)cc3c12 [Alternariol]
[1]; [10]
  activity at 2 µg/mL: 84.6%
[1]; [11]
  activity at 2 µg/mL: 91.2%
[2]; [12]
  percent parasite growth at 2 µg/mL: 37.5%
[2]; [13]
  percent parasite growth at 2 µg/mL: 99.9%
[3]; [14]
  activity at 2 µg/mL: 171%
[3]; [15]
  activity at 2 µg/mL: 90.2%
